Test results reported in US20220030866A1, “CONJUGATES OF AUXIN ANALOGS” (The State of Israel, Ministry of Agriculture & Rural …, priority 2019, published 2022).

What was measured:
Type in all cases: in vivo
[1] = system: cuttings from mature Eucalyptus grandis trees; test: rooting of cuttings from mature Eucalyptus grandis trees
Experimental: Eight-year-old Eucalyptus grandis plants were grown from seeds and placed in a net house in 20 liter pots containing peat and tuff (70:30, v/v), drip irrigated and fertilized with 3 liters of Shefer™ 737 liquid fertilizer (ICL Fertilizers, Israel) per cubic meter of water. Cuttings were collected from branches which grew 2-2.5 meters above the ground. Cuttings were 2-3 mm thick branches, 15 cm long, with 1-2 pairs of leaves. The leaf blades were cut in half to decrease transpiration. Cuttings were treated with 6000 ppm IBA (potassium indole-3-butyric acid) for 1 minute with or without 100 μM of each tested compound. The tested compounds were either applied to the base of the cutting, with or without IBA and/or sprayed on the foliage in the presence of 0.05% Triton™ X-100 surfactant. Cuttings were rooted in rooting tables heated to 25° C. under constant 90% humidity, in a controlled-climate greenhouse. The rooting medium contained crushed polystyrene foam: vermiculite no. 3: pit (3:2:1, v/v/v). Rooting was recorded after 30-60 days. Roots system architecture was analyzed by WinRHIZO™ system scanner and software.
Exemplary conjugates prepared as described in Example 1 were tested for their ability to promote adventitious root (AR) formation in cuttings from mature eucalyptus (Eucalyptus grandis) trees. In this model, AR formation is difficult to induce, with 5-15% root development in the presence of IBA potassium salt [Abu-Abied et al., Plant J 2012, 71:787-799], such that effective AR formation indicates a potent root formation activity.
Various concentrations and mode of applications were tested for each compound in the presence or absence of IBA (the “gold standard” rooting enhancer). A concentration of 100 μM of each conjugate was used for an initial screen of 37 conjugates, in which the compounds were applied to the base of the cutting by dipping (submerging the cutting base in a solution of the conjugate for one minute) or to the foliage by spraying. After 45 days, the cuttings were scored for the presence of callus or roots.
Conjugates prepared as described herein were evaluated in a Eucalyptus grandis rooting model, according to procedures such as described hereinabove. The bases of cuttings (a 12-15 cm long branch with the two upper leaves, whose blades were cut in half) were dipped in a solution containing 6000 ppm IBA potassium salt and 50 μM of conjugate for 1 minute, and the leaves were sprayed with 50 μM of the same conjugate (mixed with 0.5% Triton™ X-100 surfactant). The cuttings were imbedded in a heated (25° C.) rooting table containing a 1:2:3 ratio of peat:vermiculite:polystyrene, under 90% relative humidity.

[2] = system: avocado rootstock cuttings; test: rooting of avocado rootstock cuttings; settings: VC801 rootstock
From the text: Avocado rootstock is extremely difficult to root. Currently, the common technique for propagating clones of avocado rootstock is to graft the desired rootstock on a seedling, and transfer to the dark to generate an etiolated branch. This branch can be rooted and grafted with the desired variety while still grafted on the seed [Frolich & Platt, California Avocado Society 1971-72 Yearbook 1972, 55:97-109]. However, the preparation of such twice-grafted seedlings is time-consuming and expensive.
The ability of exemplary conjugates to promote rooting in green avocado cuttings (in the presence of IBA) was therefore examined. In particular, Compounds 2h (MCPA-methanol), 4b (NAA-β-alanine methyl ester), 3g (2-DP-methyl-4-aminobenzoate), 3f (2-DP-p-toluidine), 1l (4-CPA-morpholine) and is (4-CPA-D-Trp) were tested.
(§1) Exemplary conjugates were also tested for rooting the hard-to-root species of avocado (VC801 rootstock) and argan, according to procedures described hereinabove.

[3] = system: argan (Argania spinosa) cuttings; test: rooting of argan cuttings; settings: in vivo
Experimental: The ability of exemplary conjugates to promote rooting in plants which are recalcitrant to rooting (in addition to the results obtained with Eucalyptus grandis in Example 3) was examined using cuttings of argan (Argania spinosa) and jojoba (Simmondsia chinensis) in a commercial nursery (Shorashim). The argan and jojoba cuttings were treated with 100 μM of a conjugate (any of Compounds 10-1t) with 6000 ppm IBA. The common treatment T-8 (talc with 8000 ppm IBA and a fungicide) or 6000 ppm IBA (without conjugate) served as a control.
as §1

Structure (SMILES): CC[C@H](C)[C@H](NC(=O)COc1ccc(Cl)cc1)C(=O)OC [4-CPA-L-Ile-methyl ester]
- root number compared to IBA control, in words ([1]; Example 12: 6000 ppm IBA and 50 μM conjugate dip plus spray): promoted an increase in root number
- rooting of cuttings, repeated experiment in a different season ([1]; Example 12 repeat: 6000 ppm IBA with 50 μM conjugate, or IBA control): 50%
- root architecture / root length of VC801 avocado cuttings compared to IBA control, in words [2]: more roots per cutting and considerably longer roots
- rooting of VC801 avocado cuttings ([2]; conjugate, or IBA control): 60%
- number of roots per cutting in argan clone YM3 compared to IBA control, in words [3]: considerably increased the number of roots per cutting
